For the test, the target named is catalytic domain of human Bub1 (amino acids 704-1085) (Homo sapiens (Human), UniProt O43683). In words: Bub1 kinase assay (TR-FRET). The following applies: 10 μM ATP, 1 μM peptide substrate; read-out: Biological Assay 1: Bub1 kinase assay median IC50. It counts as biochemical. As for the experimental part:
To this end, 100-fold concentrated compound solutions (in DMSO) were previously prepared by serial dilution (1:3.4) of 2 mM stocks in a clear low volume 384-well source microtiter plate (Greiner Bio-One, Frickenhausen, Germany), from which 50 nl of compounds were transferred into a black low volume test microtiter plate from the same supplier. […] The resulting mixture (5 μl final volume) was incubated at 22° C. during 60 min., and the reaction was stopped by the addition of 5 μl of an aqueous EDTA-solution (50 mM EDTA, in 100 mM HEPES pH 7.5 and 0.2% (w/v) bovine serum albumin) which also contained the TR-FRET detection reagents (0.2 μM streptavidin-XL665 [Cisbio Bioassays, Codolet, France] and 1 nM anti-phosho-Serine antibody [Merck Millipore, cat. #35-001] and 0.4 nM LANCE EU-W1024 labeled anti-mouse IgG antibody [Perkin-Elmer, product no. AD0077, alternatively a Terbium-cryptate-labeled anti-mouse IgG antibody from Cisbio Bioassays can be used]). The stopped reaction mixture was further incubated 1 h at 22° C. in order to allow the formation of complexes between peptides and detection reagents. Subsequently, the amount of product was evaluated by measurement of the resonance energy transfer from the Eu-chelate-antlbody complex recognizing the Phosphoserlne residue to the streptavidin-XL665 bound to the biotin moiety of the peptide. […] IC50 values were calculated by fitting the normalized inhibition data to a 4-parameter logistic equation (Minimum, Maximum, IC50, Hill; Y=Max+(Min−Max)/(1+(X/IC50)Hill)) using a Bayer-proprietary analysis software.
Background: TR-FRET usually uses a lanthanide donor and a delayed reading to cut background.
catalytic domain of human Bub1 (amino acids 704-1085), sequence (O43683 704-1085): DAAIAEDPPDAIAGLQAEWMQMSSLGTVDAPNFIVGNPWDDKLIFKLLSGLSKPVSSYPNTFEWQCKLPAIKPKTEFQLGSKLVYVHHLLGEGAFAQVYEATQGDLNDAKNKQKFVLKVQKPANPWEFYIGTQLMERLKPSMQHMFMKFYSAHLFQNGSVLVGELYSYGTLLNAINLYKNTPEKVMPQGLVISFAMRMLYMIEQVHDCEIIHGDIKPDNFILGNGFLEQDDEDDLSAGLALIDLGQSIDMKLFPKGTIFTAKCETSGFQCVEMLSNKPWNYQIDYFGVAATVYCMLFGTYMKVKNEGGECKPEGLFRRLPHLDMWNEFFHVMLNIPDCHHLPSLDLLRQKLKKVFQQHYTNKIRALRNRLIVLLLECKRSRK
In the case of `COc1cnc(-c2nn(Cc3cccc(C#N)c3)c3ccccc23)nc1Nc1ccncc1` [Example 2-45-1, 3-({3-[5-methoxy-4-(pyridin-4-ylamino)pyrimidin-2-yl]-1H-indazol-1-yl}methyl)benzonitrile], the IC50 (in general, the concentration at which inhibition is half-maximal) was determined as 110 nM.
Next, `COc1cnc(-c2nn(Cc3c(F)cccc3F)c3ccccc23)nc1N(Cc1c(F)cccc1F)c1ccncc1` [Example 2-7-2, N-(2,6-difluorobenzyl)-2-[1-(2,6-difluorobenzyl)-1H-indazol-3-yl]-5-methoxy-N-(pyridin-4-yl)pyrimidin-4-amine]: 210 nM; `CC(C)(C)OC(=O)NCCOCCOc1cnc(-c2nn(Cc3ccccc3F)c3ccccc23)nc1Nc1ccncc1` [Example 4-20, tert-butyl {2-[2-({2-[1-(2-fluorobenzyl)-1H-indazol-3-yl]-4-(pyridin-4-ylamino)pyrimidin-5-yl}oxy)ethoxy]ethyl}carbamate]: 210 nM; `CCOc1cc(O)c(Cn2nc(-c3ncc(OC)c(Nc4cc(C)nc(C)c4)n3)c3ccccc32)c(F)c1` [Example 24-6, 2-[(3-[4-[(2,6-dimethylpyridin-4-yl)amino]-5-methoxypyrimidin-2-yl}-1H-indazol-1-yl)methyl]-5-ethoxy-3-fluorophenol]: 940 nM.
As to `CCOc1cc(F)c(Cn2nc(-c3ncc(OC[C@@H]4CCC(=O)N4)c(Nc4ccncc4)n3)c3ccccc32)c(F)c1` [Example 4-18, formic acid - (5S)-5-[({2-[1-(4-ethoxy-2,6-difluorobenzyl)-1H-indazol-3-yl]-4-(pyridin-4-ylamino)pyrimidin-5-yl}oxy)methyl] pyrrolidin-2-one (1:1)], the IC50 was 12 nM.
Next, `COc1cnc(-c2nn(Cc3c(Cl)ccc([N+](=O)[O-])c3Cl)c3ccccc23)nc1Nc1ccncc1` [Example 2-44-1, 2-[1-(2,6-dichloro-3-nitrobenzyl)-1H-indazol-3-yl]-5-methoxy-N-(pyridin-4-yl)pyrimidin-4-amine]: 41 nM; `COc1cc(C(F)(F)F)ccc1Cn1nc(-c2ncc(OC)c(Nc3ccncc3)n2)c2ccccc21` [Example 2-47-1, 5-methoxy-2-{1-[2-methoxy-4-(trifluoromethyl)benzyl]-1H-indazol-3-yl}-N-(pyridin-4-yl)pyrimidin-4-amine]: 2400 nM.
Turning to `COc1cnc(-c2nn(Cc3ccc(SC(F)(F)F)cc3)c3ccccc23)nc1Nc1ccncc1` [Example 2-9-3, 5-methoxy-N-(pyridin-4-yl)-2-(1-{4-[(trifluoromethyl)sulfanyl]benzyl}-1H-indazol-3-yl)pyrimidin-4-amine], the IC50 was 20000 nM.
Take `CCOc1cc(F)c(CN(c2ccncc2)c2nc(-c3nn(Cc4c(F)cc(OCC)cc4F)c4ccccc34)ncc2OC)c(F)c1` [Example 2-5-2, N-(4-ethoxy-2,6-difluorobenzyl)-2-[1-(4-ethoxy-2,6-difluorobenzyl)-1H-indazol-3-yl]-5-methoxy-N-(pyridin-4-yl)pyrimidin-4-amine]: the half-inhibitory concentration (IC50) came to 9300 nM.
For the compound `COc1cnc(-c2nn(Cc3c(Cl)ccc(N)c3Cl)c3ccccc23)nc1Nc1ccncc1` [Example 40-1, 2-[1-(3-amino-2,6-dichlorobenzyl)-1H-indazol-3-yl]-5-methoxy-N-(pyridin-4-yl)pyrimidin-4-amine], the IC50 turned out to be 39 nM.
Regarding `COc1cnc(-c2nn(Cc3ccc(CC(=O)O)cc3F)c3ccccc23)nc1Nc1ccncc1` [Example 2-22-1, [3-fluoro-4-({3-[5-methoxy-4-(pyridin-4-ylamino)pyrimidin-2-yl]-1H-indazol-1-yl}methyl)phenyl]acetic acid], the IC50 came to 3200 nM.
On to `COc1cnc(-c2nn(Cc3c(F)cc(OC(F)F)cc3F)c3ccccc23)nc1N(Cc1c(F)cc(OC(F)F)cc1F)c1ccncc1` [Example 2-39-2, N-[4-(difluoromethoxy)-2,6-difluorobenzyl]-2-{1-[4-(difluoromethoxy)-2,6-difluorobenzyl]-1H-indazol-3-yl}-5-methoxy-N-(pyridin-4-yl)pyrimidin-4-amine], for which the IC50 was 6900 nM.
In the case of `CCOc1ccc(CN(c2ccncc2)c2nc(-c3nn(Cc4ccc(OCC)c(F)c4F)c4ccccc34)ncc2OC)c(F)c1F` [Example 2-14-2, N-(4-ethoxy-2,3-difluorobenzyl)-2-[1-(4-ethoxy-2,3-difluorobenzyl)-1H-indazol-3-yl]-5-methoxy-N-(pyridin-4-yl)pyrimidin-4-amine], the IC50 was 730 nM.
Next, `COc1cnc(-c2nn(Cc3c(F)ccc(OC)c3F)c3ccccc23)nc1N(Cc1c(F)ccc(OC)c1F)c1ccncc1` [Example 2-4-2, N-(2,6-difluoro-3-methoxybenzyl)-2-[1-(2,6-difluoro-3-methoxybenzyl)-1H-indazol-3-yl]-5-methoxy-N-(pyridin-4-yl)pyrimidin-4-amine]: 3500 nM; `COc1cnc(-c2nn(Cc3ccc(C(C)(C)O)cc3Cl)c3ccccc23)nc1Nc1ccncc1` [Example 9-1, 2-[3-chloro-4-({3-[5-methoxy-4-(pyridin-4-ylamino)pyrimidin-2-yl]-1H-indazol-1-yl}methyl)phenyl]propan-2-ol]: 9.8 nM; `COc1cnc(-c2nn(Cc3c(F)cccc3OC)c3ccccc23)nc1Nc1ccncc1` [Example 2-49-1, 2-[1-(2-fluoro-6-methoxybenzyl)-1H-indazol-3-yl]-5-methoxy-N-(pyridin-4-yl)pyrimidin-4-amine]: 1500 nM.
The same measure for `N#Cc1cnccc1Nc1nc(-c2nn(Cc3ccccc3F)c3ccccc23)ncc1Oc1ccncc1C#N` [Example 26-2]: 2400 nM; for `CCOc1cc(F)c(Cn2nc(-c3ncc(OCC4CN(C(=O)OC(C)(C)C)CCO4)c(Nc4ccncc4)n3)c3ccccc32)c(F)c1` (centres unmarked) [Example 4-11, tert-butyl 2-[({2-[1-(4-ethoxy-2,6-difluorobenzyl)-1H-indazol-3-yl]-4-(pyridin-4-ylamino)pyrimidin-5-yl}oxy)methyl] morpholine-4-carboxylate]: 24 nM; for `COc1cnc(-c2nn(Cc3cccc(-c4noc(C)n4)c3)c3ccccc23)nc1Nc1ccncc1` [Example 2-2-3, 5-methoxy-2-{1-[3-(5-methyl-1,2,4-oxadiazol-3-yl)benzyl]-1H-indazol-3-yl}-N-(pyridin-4-yl)pyrimidin-4-amine]: 25 nM.
The same measure for `COc1cnc(-c2nn(Cc3c(Cl)ccc(C(=O)O)c3Cl)c3ccccc23)nc1Nc1ccncc1` [Example 19-1, 2,4-dichloro-3-({3-[5-methoxy-4-(pyridin-4-ylamino)pyrimidin-2-yl]-1H-indazol-1-yl}methyl)benzoic acid]: 20000 nM; for `N#Cc1cnc(-c2nn(Cc3ccccc3F)c3ccccc23)nc1Nc1ccncc1` [Example 31-1, 2-[1-(2-fluorobenzyl)-1H-indazol-3-yl]-4-(pyridin-4-ylamino)pyrimidine-5-carbonitrile]: 4700 nM.
As for `COc1cnc(-c2nn(Cc3cccc(-n4cccc4)c3)c3ccccc23)nc1Nc1ccncc1` [Example 2-1-3, 5-methoxy-N-(pyridin-4-yl)-2-{1-[3-(1H-pyrrol-1-yl)benzyl]-1H-indazol-3-yl}pyrimidin-4-amine], the IC50 was 120 nM.
Next, `COc1cnc(-c2nn(Cc3c(Cl)cccc3Cl)c3ccccc23)nc1N(Cc1c(Cl)cccc1Cl)c1ccncc1` [Example 2-9-2, N-(2,6-dichlorobenzyl)-2-[1-(2,6-dichlorobenzyl)-1H-indazol-3-yl]-5-methoxy-N-(pyridin-4-yl)pyrimidin-4-amine]: 240 nM.

(Values after US10266548B2, “Substituted benzylindazoles for use as Bub1 kinase inhibitors in the treatment of hyperproliferative diseases” (Bayer Intellectual Property GmbH, priority 2011, dated 2019).)
